Laboratory results published in patent publication US12617747B2, “Cannabinoid analogs and methods for their preparation” (InMed Pharmaceuticals Inc., priority 2018, dated 2026).

Molecular target: T1, human CB2 receptor (Homo sapiens, UniProt P34972)
T1 construct: HA; expressed in transfected cells
Assay: CB2 receptor agonist activity in AtT20 cells stably expressing HA-tagged human CB2 receptors
Format: cell-based
Conditions: method of Udoh et al. 2019
Text: The activity of 5-fluorocannabichromene (5F-CBC) was studied in AtT20 cells stably expressing HA-tagged human CB1 and CB2 receptors, as described by Udoh, et al. (“Cannabichromene is a cannabinoid CB2 receptor agonist.” British Journal of Pharmacology, 2019, doi: 10.1111/bph.14815).

T1 sequence (P34972 whole entry): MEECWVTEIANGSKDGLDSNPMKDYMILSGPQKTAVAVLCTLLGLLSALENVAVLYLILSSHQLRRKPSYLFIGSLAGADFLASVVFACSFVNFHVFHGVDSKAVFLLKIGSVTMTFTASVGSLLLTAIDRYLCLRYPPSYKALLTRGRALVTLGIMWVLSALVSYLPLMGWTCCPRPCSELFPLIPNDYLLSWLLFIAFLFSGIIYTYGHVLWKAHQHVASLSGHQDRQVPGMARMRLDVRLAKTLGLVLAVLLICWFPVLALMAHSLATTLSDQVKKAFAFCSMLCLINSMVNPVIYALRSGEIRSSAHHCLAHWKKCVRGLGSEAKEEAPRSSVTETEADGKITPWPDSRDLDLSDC

## CC(C)=CCCC1(C)C=Cc2c(O)cc(CCCCCF)cc2O1 (stereo not shown) [5F-CBC, 7-(5-fluoropentyl)-2-methyl-2-(4-methyl-pent-3-enyl)-2H-chromen-5-ol]
  EC50: 2100 nM
